Measured values as given in US9592224B2, “Substituted benzothiazoles and therapeutic uses thereof for the treatment of human diseases” (CONSEJO SUPERIOR DE INVESTIGACIONES CIENTÍFICAS, priority 2013, dated 2017).

Key:
[1] = biological target: T1, recombinant human enzyme CK-1δ (Homo sapiens, UniProt P48730); experiment: Enzyme inhibition assay, Luminometer Kinase-GLO method, CK-1δ; format: biochemical; details: for IC50: casein substrate, 4 μM ATP, 60 minutes at 30° C., read-out: Inhibitory Concentration 50 (IC50) CK-1δ
T1 construct: purchased Millipore Iberica SAU
T1 sequence (P48730 whole entry): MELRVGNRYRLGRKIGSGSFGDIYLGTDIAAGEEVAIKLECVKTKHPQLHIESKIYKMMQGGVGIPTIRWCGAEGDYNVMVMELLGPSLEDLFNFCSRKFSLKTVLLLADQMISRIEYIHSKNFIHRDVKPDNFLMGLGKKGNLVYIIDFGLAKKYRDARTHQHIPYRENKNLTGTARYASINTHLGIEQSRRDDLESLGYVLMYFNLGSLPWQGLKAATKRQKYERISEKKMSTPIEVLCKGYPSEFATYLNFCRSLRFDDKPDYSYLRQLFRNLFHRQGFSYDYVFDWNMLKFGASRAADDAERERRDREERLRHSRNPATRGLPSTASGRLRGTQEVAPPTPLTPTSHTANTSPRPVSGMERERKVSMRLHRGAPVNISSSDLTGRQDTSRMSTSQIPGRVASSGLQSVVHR
Method: (§1) Enzyme inhibition assays were performed using the Luminometer Kinase-GLO® method. Recombinant human enzyme CK-1δ was purchased from Millipore Iberica SAU and recombinant human enzyme CK-1ε was purchased from Invitrogen. The phosphorylation substration chosen was casein. The Luminescent Kinase Kit (catalogue no. V6711) was obtained from Promega. ATP and other reagents were purchased from Sigma-Aldrich (St. Louis, Mo.).
(§2) The assays were conducted in buffer using 96-well plates. In a typical assay: 10 μL of the test compound (dissolved in dimethylsulfoxide at a concentration of 1 mM and, in turn, dissolved in buffer to the required concentration for the experiment) and 10 μL (16 ng) of the CK-1δ enzyme or 10 μL (50 ng) of the CK-1ε enzyme row were added to each well followed by 20 μL of buffer containing 0.1% casein as substrate and 4 μM of ATP. The assay buffer contained: 50 mM HEPES, pH 7.5; 0.01% Brij-35; 10 mM MgCl2; 1 mM EGTA and 0.01% NaN3. […] After incubating for 60 minutes at 30° C., the enzymatic reaction was stopped using 40 μL of Kinase-GLO® reagent. Luminescence was measured after ten minutes using a FLUOstar Optima (BMG Labtechnologies GmbH, Offenburg, Germany) multimode reader. The activity was proportional to the difference between the total and consumed ATP. Inhibition activities were calculated in accordance with the maximum activity measured in the absence of inhibitor. IC50 is defined as the concentration of each compound that reduces enzyme activity by 50% with respect to that obtained without inhibitor.

in vitro = details: pig, pH 7.4; for Papp at […]: PAMPA
Method: To filter the samples, PVDF membrane filters (diameter: 30 mm, pore size: 0.45 μm) were used.
Ten reference compounds were selected, whose blood-brain barrier passage is known and public, in order to validate the experiment. […] The solutions were filtered. Next, 180 μL of a PBS/ethanol (70/30) solution were added to each well of the acceptor plate. The donor plate was impregnated with 4 μL of a porcine brain lipid solution dissolved in dodecane (20 mg mL^−1). After 5 min, 180 μL of dissolution of each compound were added to this plate. Of the compounds whose penetration into the central nervous system was to be assessed, between 1-2 mg were taken and dissolved in 1,500 μL of ethanol and 3,500 μL of PBS (pH=7.4), filtered and added to the donor 96-well plate. The donor plate was then placed on the acceptor forming a kind of “sandwich” and allowed to incubate for 2 hours and 30 min at 25° C. The compounds, by passive transport, will move from the donor plate through the porcine brain lipid to the acceptor plate. After 2 hours and 30 min, it was carefully removed from the donor plate. The concentration and absorbance, both of the commercial compounds and the synthesised derivatives evaluated in the acceptor and donor plates were determined using a UV absorbance reader. Each sample was analysed at different wavelengths (3 to 5) in three wells and in at least two independent experiments.

[2] = biological target: T2, recombinant human enzyme CK-1ε (Homo sapiens, UniProt P49674); experiment: Enzyme inhibition assay, Luminometer Kinase-GLO method, CK-1ε; format: biochemical; details: for IC50: casein substrate, 4 μM ATP, 60 minutes at 30° C., read-out: Inhibitory Concentration 50 (IC50) CK-1ε
T2 construct: purchased Invitrogen
T2 sequence (P49674 whole entry): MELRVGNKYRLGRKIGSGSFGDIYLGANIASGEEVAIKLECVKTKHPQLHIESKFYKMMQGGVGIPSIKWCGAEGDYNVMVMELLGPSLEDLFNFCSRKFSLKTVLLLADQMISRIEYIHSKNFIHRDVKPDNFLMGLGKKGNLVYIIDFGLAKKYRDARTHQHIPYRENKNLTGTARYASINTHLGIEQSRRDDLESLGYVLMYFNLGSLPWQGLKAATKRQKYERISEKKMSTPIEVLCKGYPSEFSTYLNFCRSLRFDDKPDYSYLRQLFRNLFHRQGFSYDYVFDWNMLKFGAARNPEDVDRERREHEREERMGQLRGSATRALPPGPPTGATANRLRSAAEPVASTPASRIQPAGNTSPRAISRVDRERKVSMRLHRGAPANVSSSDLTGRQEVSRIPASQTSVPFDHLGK
Method: as §1, §2

[3] = literature value, Di et al, 2003; cited from earlier work

Row | SMILES | IC50 [1] [nM] | Papp at […] (in vitro) [×10⁻⁶ cm/s] | IC50 [2] [nM] | also measured
1 | COc1cc(CC(=O)Nc2nc3ccc(C(F)(F)F)cc3s2)cc(OC)c1OC [Compound 10] | 15 | 10.6 ± 0.1 | 370 | –
2 | O=C(Cc1ccccc1)Nc1nc2ccccc2s1 [Compound 14, N-(benzothiazole-2-yl)-2-phenylacetamide] | 330 | 12.7 ± 1.2 | 2310 | –
3 | O=C(Cc1cccc(Cl)c1)Nc1nc2ccccc2s1 [Compound 20, N-(benzothiazole-2-yl)-2-(3-chlorophenyl)acetamide] | 850 | 10.6 ± 0.3 | 2860 | –
4 | COc1ccccc1CC(=O)Nc1nc2ccc(C)cc2s1 [Compound 30, N-(6-methylbenzothiazole-2-yl)-2-(2-methoxyphenyl)acetamide] | 290 | 6.2 ± 0.5 | 4930 | –
5 | COc1ccc2nc(NC(=O)Cc3ccccc3OC)sc2c1 [Compound 51, N-(6-methoxybenzothiazole-2-yl)-2-(2-methoxyphenyl)acetamide] | 2220 | 11.2 ± 0.9 | – | inhibition at 10 µM [2]: 33%
6 | CCOc1ccc2nc(NC(=O)Cc3ccccc3OC)sc2c1 [Compound 52, N-(6-ethoxybenzothiazole-2-yl)-2-(2-methoxyphenyl)acetamide] | 5760 | – | – | inhibition at 10 µM [2]: 46%
7 | COc1ccc2nc(NC(=O)Cc3ccc(Cl)c(Cl)c3)sc2c1 [Compound 53, N-(6-methoxybenzothiazole-2-yl)-2-(3,4-dichlorophenyl)acetamide] | 1240 | – | 16500 | –
8 | CCOc1ccc2nc(NC(=O)Cc3ccc(Cl)c(Cl)c3)sc2c1 [Compound 54, N-(6-ethoxybenzothiazole-2-yl)-2-(3,4-dichlorophenyl)acetamide] | 3430 | – | 14200 | –
9 | COc1ccc2nc(NC(=O)Cc3cc(OC)c(OC)c(OC)c3)sc2c1 [Compound 55, N-(6-methoxybenzothiazole-2-yl)-2-(3,4,5-trimethoxyphenyl)acetamide] | 6650 | – | 17700 | –
10 | CCOc1ccc2nc(NC(=O)Cc3cc(OC)c(OC)c(OC)c3)sc2c1 [Compound 56, N-(6-ethoxybenzothiazole-2-yl)-2-(3,4,5-trimethoxyphenyl)acetamide] | 1430 | – | 9830 | –
11 | COc1cc(/C=C/C(=O)Nc2nc3ccc(S(=O)(=O)N(C)C)cc3s2)cc(OC)c1OC [Compound 57, (E)-N-(6-(N,N-dimethylsulfamoyl)benzothiazole-2-yl)-3-(3,4,5-trimethoxyphenyl) acrylamide] | – | – | – | CK-1δ inhibition % @ 10 μM ([1]; @ 10 μM): 10% @; CK-1ε inhibition % @ 10 μM ([2]; @ 10 μM): 10% @
12 | COc1ccccc1CC(=O)Nc1nc2ccc(F)cc2s1 [Compound 59, N-(6-fluorobenzothiazole-2-yl)-2-(2-methoxyphenyl)acetamide] | 1170 | – | 4510 | –
13 | CN1C(C(=O)Nc2ccccn2)=C(O)c2ccccc2S1(=O)=O [Piroxicam, reference compound] | – | – | – | Pe (10^−6 cm s^−1) PAMPA-blood-brain barrier permeation (in vitro; […]): 0.2 ± 0.1 10^−6 cm s^−1; Bibl. PAMPA-blood-brain barrier permeation (Pe) [3]: 2.5 10^−6 cm s^−1
14 | CN(C)CCCN1c2ccccc2Sc2ccccc21 [Promazine, reference compound] | – | 8.5 ± 0.1 | – | Bibl. PAMPA-blood-brain barrier permeation (Pe) [3]: 8.8 10^−6 cm s^−1

More lines, main results first:

Row | IC50 [1] [nM] | Papp at […] (in vitro) [×10⁻⁶ cm/s] | IC50 [2] [nM] | SMILES | also measured
15 | 65 | 9.6 ± 0.1 | 550 | O=C(Cc1ccc(Cl)cc1)Nc1nc2ccc(C(F)(F)F)cc2s1 [Compound 1, N-(6-trifluoromethylbenzothiazole-2-yl)-2-(4-chlorophenyl)acetamide] | –
16 | 33 | 14.6 ± 0.1 | 700 | COc1ccc(CC(=O)Nc2nc3ccc(C(F)(F)F)cc3s2)cc1 [Compound 3, N-(6-trifluoromethylbenzothiazole-2-yl)-2-(4-methoxyphenyl)acetamide] | –
17 | 23 | 5.9 ± 0.5 | 840 | O=C(Cc1cccc(Cl)c1)Nc1nc2ccc(C(F)(F)F)cc2s1 [Compound 4, N-(6-trifluoromethylbenzothiazole-2-yl)-2-(3-chlorophenyl)acetamide] | –
18 | 83 | 5.6 ± 0.8 | 880 | Cc1ccc2nc(NC(=O)Cc3cccc(Cl)c3)sc2c1 [Compound 5, N-(6-methylbenzothiazole-2-yl)-2-(3-chlorophenyl)acetamide] | –
19 | 42 | 11.2 ± 2 | 690 | COc1cccc(CC(=O)Nc2nc3ccc(C(F)(F)F)cc3s2)c1 [Compound 6, N-(6-trifluoromethylbenzothiazole-2-yl)-2-(3-methoxyphenyl)acetamide] | –
20 | 10 | 11.3 ± 2.1 | 800 | COc1ccccc1CC(=O)Nc1nc2ccc(C(F)(F)F)cc2s1 [Compound 8, N-(6-trifluoromethylbenzothiazole-2-yl)-2-(2-methoxyphenyl)acetamide] | –
21 | 47 | 10.4 ± 3.9 | 760 | O=C(Cc1ccccc1)Nc1nc2ccc(C(F)(F)F)cc2s1 [Compound 12, N-(6-trifluoromethylbenzothiazole-2-yl)-2-phenylacetamide] | –
